Measured values published in patent US8309550B2, “Kinase inhibitors and their use as pharmaceutical agents” (Shanghai Genomics, Inc., priority 2011, dated 2012).
Where two headings read alike, the source gives them in different places.

Assays:
HepG2 = assay: 72 h MTT cytotoxicity assay HepG2; format: cell-based; details: Homo sapiens; HepG2, 72 hrs
Description: (§1) MIT cytotoxicity assay. The compounds of the invention were subjected to a standard cellular proliferation assay using human cell lines. HeLa cells (Human cervix adenocarcinoma cell line, ATCC NO, CCL-2); A549 cells (Human lung carcinoma cells line, ATCC NO, CCL-185); U2OS cells (Human osteosarcoma cell line, ATCC NO, HTB-96); Eca-109 cells (Human esophageal carcinoma cell line); HepG2 (Human hepatocellular liver carcinoma cell line, ATCC NO, HB-8065); K562 cells (Human chronic myelogenous leukemia cell line, ATCC NO, CCL-243); SK-MEL-28 (Human malignant melanoma cell line, ATCC NO, HTB-72); Molt-4 (Human acute lymphoblastic leukemia cell line, ATCC NO, CRL-1582); H460 (Human large cell lung cancer cell line, ATCC NO, HTB-177); MDA-MB-231 (Human breast adenocarcinoma cell line, ATCC NO, HTB-26); MCF7 (Human breast adenocarcinoma cell line, ATCC NO, HTB-22); ACHN (Human renal cell adenocarcinoma cell line, ATCC NO, CRL-1611); PC-3M (Human prostate adenocarcinoma cell line, ATCC NO CRL-1435); HL60 (Human acute promyelocytic leukemia cell line, ATCC NO, CCL-240); THP-1 (Human acute monocytic leukemia, ATCC NO, TIB-202); Jurkat (Human acute T cell leukemia cell line, ATCC NO, CRL-2063); HCT-116 (Human colorectal carcinoma cell line, ATCC NO, CCL-247); HT-29 (Human colorectal adenocarcinoma cell line, ATCC NO, HTB-38™); WI-38 (Human normal lung cell line, ATCC NO, CCL-75); MRC-5 (Human normal lung cell line, ATCC NO, CCL-171).
(§2) HepG2, MDA-MB-231, WI-38 and MRC-5 cells were obtained from Shanghai Institute of Cell Biology, Chinese Academy of Sciences (Shanghai 200031, China). A549, HeLa, K562, MCF7, ACHN, H460, U2OS, Eca-109, MCF7, HL60, THP-1, Jurkat, HCT-116, HT-29, PC-3M, SK-MEL-28, Molt-4, H460 and […] cells were purchased from ATCC (American Type Culture Collection, USA).
(§3) Standard 72 h MTT (thiazolye blue; 3-[4,5-dimethylthiazol-2-yl]-2,5-diphenyltetrazolium bromide) assays were performed. Briefly, the cell lines used in this study were recovered and cultured according to the conditions recommended. 4000 cells per well were seeded into 96-well plates according to doubling time and incubated overnight at 37° C. Compounds were prepared in DMSO and a ½ dilution series in 100 μl cell culture media, added to cells (in duplicates) with the final DMSO concentration of 0.025%, and incubated for 72 hrs at 37° C. MTT solution (5 mg/ml) was added at 10 μl per well and incubated in the dark at 37° C. for 4 hr. Culture medium and MTT solution was removed. MTT dye was solubilised with 100 μl per well of DMSO with agitation. Absorbance was read at 562 nm and data analyzed using Sigmoid curve-fitting software Origin 6.0 (MicroCal, LLC, USA) to determine IC50 value.

PC-3M-luc = assay: 72 h MTT cell viability PC-3M-luc; format: cell-based; details: Homo sapiens
Description: as §1, §2, §3

U2OS cells = assay: 72 h MTT cytotoxicity assay U2OS; format: cell-based; details: Homo sapiens
Description: as §1, §2, §3

ACHN-luc = assay: 72 h MTT cell viability ACHN-luc; format: cell-based; details: Homo sapiens
Description: as §1, §2, §3

THP-1 = assay: 72 h MTT cell viability THP-1; format: cell-based; details: Homo sapiens
Description: as §1, §2, §3

lung carcinoma (H460) = assay: Inhibition of tumor growth, NCI-H460 in SCID-bg mice; format: in vivo; details: oral once a day
Description: Tumor type: lung carcinoma (H460)
Treatment: Single PO dose for 21 days (starting at day 7 following tumor inoculation)
Endpoint: tumor volume and mean luciferase activity by Xenogen (Caliper) machine:
SCID-bg mice were implanted with NCI-H460 cells at 5×10^6 cells/mouse on Day 0. Compound 18 treatment began on Day 7. […] In model group, the vehicle was used instead of compound 18. Tumor volume and mean luciferase activity by Xenogen technology were measured once per there days.

SRC = SRC (Homo sapiens, UniProt P12931); assay: Kinase assay SRC (Table III); details: read-out: Target biochemical activity IC50 SRC
Chain of SRC (P12931 whole entry, species assumed): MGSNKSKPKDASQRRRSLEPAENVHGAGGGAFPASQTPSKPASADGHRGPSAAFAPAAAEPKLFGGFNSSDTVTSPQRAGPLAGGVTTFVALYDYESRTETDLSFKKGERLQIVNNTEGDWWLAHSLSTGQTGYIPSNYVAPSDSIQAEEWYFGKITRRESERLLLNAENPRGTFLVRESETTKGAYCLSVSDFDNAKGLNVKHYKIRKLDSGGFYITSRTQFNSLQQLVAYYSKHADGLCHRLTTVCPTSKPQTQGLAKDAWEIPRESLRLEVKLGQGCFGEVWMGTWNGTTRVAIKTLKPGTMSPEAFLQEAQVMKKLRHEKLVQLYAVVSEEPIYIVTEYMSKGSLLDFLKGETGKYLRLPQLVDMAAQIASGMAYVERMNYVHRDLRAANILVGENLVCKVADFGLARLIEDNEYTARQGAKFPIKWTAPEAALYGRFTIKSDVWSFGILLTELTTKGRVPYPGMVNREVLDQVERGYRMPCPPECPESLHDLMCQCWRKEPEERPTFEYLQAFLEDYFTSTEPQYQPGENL
Description: (§4) Kinase assays. The compounds were tested for their ability to inhibit kinases.

HL-60 = assay: 72 h MTT cell viability HL-60; format: cell-based; details: Homo sapiens
Description: as §1, §2, §3

CDK7 = CDK7 (Homo sapiens, UniProt P50613); assay: Kinase assay CDK7 (Table III); details: read-out: Target biochemical activity IC50 CDK7
Chain of CDK7 (P50613 whole entry, species assumed): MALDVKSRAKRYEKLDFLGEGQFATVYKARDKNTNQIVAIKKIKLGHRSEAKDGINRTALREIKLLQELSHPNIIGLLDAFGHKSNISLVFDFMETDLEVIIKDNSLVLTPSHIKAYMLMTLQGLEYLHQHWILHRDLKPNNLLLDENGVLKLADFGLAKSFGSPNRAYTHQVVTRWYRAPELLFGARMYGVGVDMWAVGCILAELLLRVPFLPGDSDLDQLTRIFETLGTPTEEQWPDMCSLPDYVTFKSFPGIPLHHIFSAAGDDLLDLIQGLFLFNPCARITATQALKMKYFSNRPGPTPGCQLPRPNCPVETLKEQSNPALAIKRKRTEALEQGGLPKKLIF
Chain of CDK7 (P51946 whole entry partner, species assumed): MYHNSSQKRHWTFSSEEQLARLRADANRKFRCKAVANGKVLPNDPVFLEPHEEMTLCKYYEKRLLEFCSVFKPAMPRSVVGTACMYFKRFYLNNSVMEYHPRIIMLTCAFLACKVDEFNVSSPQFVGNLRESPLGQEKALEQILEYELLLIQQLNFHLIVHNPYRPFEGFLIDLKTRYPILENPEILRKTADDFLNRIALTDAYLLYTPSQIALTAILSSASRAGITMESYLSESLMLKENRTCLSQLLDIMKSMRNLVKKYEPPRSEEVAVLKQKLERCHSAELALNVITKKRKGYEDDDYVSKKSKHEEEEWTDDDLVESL
Chain of CDK7 (P51948 whole entry partner, species assumed): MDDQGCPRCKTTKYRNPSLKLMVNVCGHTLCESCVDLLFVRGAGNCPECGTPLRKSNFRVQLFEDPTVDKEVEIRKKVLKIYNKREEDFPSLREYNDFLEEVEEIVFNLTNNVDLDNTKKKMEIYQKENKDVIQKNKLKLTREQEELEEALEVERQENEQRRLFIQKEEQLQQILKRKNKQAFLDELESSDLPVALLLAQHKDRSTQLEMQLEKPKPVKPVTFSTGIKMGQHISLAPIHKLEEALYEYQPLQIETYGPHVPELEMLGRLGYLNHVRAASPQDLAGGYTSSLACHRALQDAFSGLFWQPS
Description: as §4

CDK9 = CDK9 (Homo sapiens, UniProt P50750); assay: CDK9 inhibitory activity, kinase assays (Table III); details: read-out: Target biochemical activity IC50 CDK9
Chain of CDK9 (P50750 whole entry, species assumed): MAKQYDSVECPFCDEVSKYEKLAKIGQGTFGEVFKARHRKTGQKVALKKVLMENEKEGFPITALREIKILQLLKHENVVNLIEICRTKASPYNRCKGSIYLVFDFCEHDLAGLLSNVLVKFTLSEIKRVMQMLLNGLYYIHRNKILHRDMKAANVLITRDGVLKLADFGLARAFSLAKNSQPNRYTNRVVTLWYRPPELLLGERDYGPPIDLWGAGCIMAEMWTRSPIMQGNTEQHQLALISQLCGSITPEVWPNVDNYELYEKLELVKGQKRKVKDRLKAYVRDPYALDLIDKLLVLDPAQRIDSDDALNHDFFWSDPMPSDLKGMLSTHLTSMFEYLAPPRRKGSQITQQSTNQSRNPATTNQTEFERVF
Chain of CDK9 (O60563 whole entry partner, species assumed): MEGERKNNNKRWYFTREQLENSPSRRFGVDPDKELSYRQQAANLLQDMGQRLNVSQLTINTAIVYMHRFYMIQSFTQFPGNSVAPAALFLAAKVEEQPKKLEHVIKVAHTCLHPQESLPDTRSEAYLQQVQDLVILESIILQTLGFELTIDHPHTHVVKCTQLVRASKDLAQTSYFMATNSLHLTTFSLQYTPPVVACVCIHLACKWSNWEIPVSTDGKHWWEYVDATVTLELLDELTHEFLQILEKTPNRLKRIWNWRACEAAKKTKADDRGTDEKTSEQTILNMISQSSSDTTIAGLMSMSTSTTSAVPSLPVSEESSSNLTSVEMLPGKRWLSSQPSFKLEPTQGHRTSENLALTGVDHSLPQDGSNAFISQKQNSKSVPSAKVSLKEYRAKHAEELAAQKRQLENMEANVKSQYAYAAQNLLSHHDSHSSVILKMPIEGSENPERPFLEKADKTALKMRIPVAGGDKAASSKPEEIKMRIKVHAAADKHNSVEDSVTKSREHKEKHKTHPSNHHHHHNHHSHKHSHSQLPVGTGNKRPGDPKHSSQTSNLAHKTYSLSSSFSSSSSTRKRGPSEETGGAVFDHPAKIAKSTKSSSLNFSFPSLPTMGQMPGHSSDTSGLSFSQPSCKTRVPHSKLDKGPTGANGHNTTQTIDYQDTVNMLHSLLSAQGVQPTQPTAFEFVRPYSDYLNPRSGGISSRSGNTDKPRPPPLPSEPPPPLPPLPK
Description: as §4

TSSK1 = target: T1, TSSK1 (Homo sapiens, UniProt Q9BXA7); assay: Kinase assay TSSK1 (Table III); details: read-out: Target biochemical activity IC50 TSSK1
T1 sequence (Q9BXA7 1-367): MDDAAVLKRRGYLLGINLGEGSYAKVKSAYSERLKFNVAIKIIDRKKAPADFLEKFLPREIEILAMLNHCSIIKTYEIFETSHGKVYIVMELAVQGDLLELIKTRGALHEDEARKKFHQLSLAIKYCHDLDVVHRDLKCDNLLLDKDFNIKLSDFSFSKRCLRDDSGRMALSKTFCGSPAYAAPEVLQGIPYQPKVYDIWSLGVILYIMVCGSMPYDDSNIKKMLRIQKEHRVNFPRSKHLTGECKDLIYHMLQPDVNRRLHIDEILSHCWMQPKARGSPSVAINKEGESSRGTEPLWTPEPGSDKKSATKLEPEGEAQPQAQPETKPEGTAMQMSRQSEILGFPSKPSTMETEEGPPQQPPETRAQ
Description: as §4

[1] = THP-1, read-out: Cell Viability IC50 THP-1
[2] = THP-1, Table III, read-out: Cellular effect in mammalian cells IC50 THP-1

IC50 (PC-3M-luc) [µM]	IC50 (ACHN-luc) [µM]	IC50 (THP-1; [1]) [µM]	IC50 (SRC) [µM]	IC50 (HL-60) [µM]	IC50 (CDK7) [µM]	IC50 (CDK9) [µM]	IC50 (TSSK1) [µM]	IC50 (THP-1; [2]) [µM]	SMILES	IC50 (HepG2) [µM]	IC50 (U2OS cells) [µM]	% Tumor Growth Inhibition at Day 21 (lung carcinoma (H460); 20 mg/kg) [%]	% Tumor Growth Inhibition at Day 21 (lung carcinoma (H460); 150 mg/kg) [%]
10.5	7.81	–	–	–	–	–	–	–	CCCn1cc(-c2ccnc(Nc3ccc(O)cc3)n2)c2cccnc21 [Compound 15, 4-(4-(1-Propyl-1H-pyrrolo[2,3-b]pyridin-3-yl)pyrimidin-2-ylamino)phenol]	1.16	7.44	–	–
5.11	7.38	–	–	–	–	–	–	–	CCCn1cc(-c2ccnc(Nc3cccc(O)c3)n2)c2cccnc21 [Compound 16, 3-(4-(1-Propyl-1H-pyrrolo[2,3-b]pyridin-3-yl)pyrimidin-2-ylamino)phenol]	1.6	7.42	–	–
3.55	2.98	5.37	1.05	1.85	0.146	0.013	–	–	CCn1cc(-c2ccnc(Nc3cccc(S(N)(=O)=O)c3)n2)c2cccnc21 [Compound 18, 3-(4-(1-Ethyl-1H-pyrrolo[2,3-b]pyridin-3-yl)pyrimidin-2-ylamino)benzenesulfonamide]	0.68	3.07	41.3	56.5
> 10	> 10	2.08	–	3.41	–	–	–	–	CCn1cc(-c2ccnc(Nc3cccc(C#N)c3)n2)c2cccnc21 [Compound 20, 3-(4-(1-Ethyl-1H-pyrrolo[2,3-b]pyridin-3-yl)pyrimidin-2-ylamino)benzonitrile]	1.81	> 10	–	–
3.19	3.74	3.26	–	2.09	–	–	–	–	CCCn1cc(-c2ccnc(Nc3cccc(S(N)(=O)=O)c3)n2)c2cccnc21 [Compound 22, 3-(4-(1-Propyl-1H-pyrrolo[2,3-b]pyridin-3-yl)pyrimidin-2-ylamino)benzenesulfonamide]	0.7	2.13	–	–
5.02	5.58	5.25	–	3.49	–	–	–	–	CCCn1cc(-c2ccnc(Nc3ccc(C)c(S(=O)(=O)N4CCOCC4)c3)n2)c2cccnc21 [Compound 24, N-(4-Methyl-3-(morpholinosulfonyl)phenyl)-4-(1-propyl-1H-pyrrolo[2,3-b]pyridin-3-yl)pyrimidin-2-amine]	1.32	3.3	–	–
4.06	> 10	–	–	1.14	–	–	–	–	CCCn1cc(-c2ccnc(Nc3cccc(S(N)(=O)=O)c3)n2)c2nc(Cl)cc(C)c21 [Compound 42, 3-(4-(5-Chloro-7-methyl-1-propyl-1H-pyrrolo[3,2-b]pyridin-3-yl)pyrimidin-2-ylamino)benzenesulfonamide]	0.55	1.86	–	–
0.48	0.34	0.36	–	0.37	–	–	–	–	CCCn1cc(-c2ccnc(Nc3cccc(S(N)(=O)=O)c3)n2)c2ccnc(Cl)c21 [Compound 96, 3-(4-(7-chloro-1-propyl-1H-pyrrolo[2,3-c]pyridin-3-yl)pyrimidin-2-ylamino)benzenesulfonamide]	0.25	0.23	–	–
1.13	0.62	–	–	0.23	–	–	–	–	CCCn1cc(-c2ccnc(Nc3ccc(C)c(S(=O)(=O)N4CCOCC4)c3)n2)c2ccncc21 [Compound 102, N-(4-Methyl-3-(morpholinosulfonyl)phenyl)-4-(1-propyl-1H-pyrrolo[2,3-c]pyridin-3-yl)pyrimidin-2-amine]	0.5	0.57	–	–
0.006	0.06	0.01	–	0.01	–	–	–	–	CCCn1cc(-c2ccnc(Nc3cccc(S(N)(=O)=O)c3)n2)c2ccncc21 [Compound 111, 3-(4-(1-Propyl-1H-pyrrolo[2,3-c]pyridin-3-yl)pyrimidin-2-ylamino)benzenesulfonamide]	0.58	0.03	–	–
0.027	0.037	0.004	–	0.008	–	–	–	–	CCCn1cc(-c2ccnc(Nc3ccc(S(N)(=O)=O)cc3)n2)c2ccncc21 [Compound 112, 4-(4-(1-Propyl-1H-pyrrolo[2,3-c]pyridin-3-yl)pyrimidin-2-ylamino)benzenesulfonamide]	0.47	0.01	–	–
–	–	–	0.2	–	0.043	0.0006	0.0016	–	CCCn1cc(-c2ccnc(Nc3cccc(S(N)(=O)=O)c3)n2)c2ccncc21 [SG51]	–	–	–	–
–	–	–	3.93	–	1.95	0.0004	> 10	0.41	CCCn1cc(-c2ccnc(Nc3ccc(C)c(S(=O)(=O)N4CCOCC4)c3)n2)c2ccncc21 [SG52]	–	–	–	–
–	–	–	> 10	–	> 10	0.041	> 10	1.04	CCCn1cc(-c2ccnc(Nc3cccc(S(N)(=O)=O)c3)n2)c2nc(Cl)cc(C)c21 [SG53]	–	–	–	–
–	–	–	> 10	–	> 10	0.057	> 10	2.95	CCCn1cc(-c2ccnc(Nc3ccc(S(N)(=O)=O)cc3)n2)c2nc(Cl)cc(C)c21 [SG54]	–	–	–	–
